From patent publication US4980349A, “Sulphonamides derived from diarylmethanes, the processes for preparing them and pharmaceutical compositions containing them” (SANOFI, priority 1986, dated 1990) come the findings set out here.

One data set can be described thus: Oral LD50 in mice. Conditions: mouse, in vivo, female Swiss CF mice, 20 g, 14 days observation, read-out: approximate oral LD50. The method, then:
The compounds were suspended in a 3% strength solution of gum arabic so as to supply, in a volume of 2 ml for the rats, the equivalent of 50, 100, 200, 400 and 800 mg/kg, and, in a volume of 1 ml for the mice, 100, 200, 400, 800 and 1,600 mg/kg and, for 1573 and 1579, 3,200 mg/kg.
Gavage was performed by means of a metal tube, on batches of 5 animals for each series.
The animals were observed daily for 14 days.

The subject of data set [1] is foreign-body (sponge) granuloma in rats. Kind of data set: Experimental granuloma induced by foreign body, histological study. The data set is classed as in vivo, Wistar rats. The note with it: for histological study of the granuloma (inflammatory connective / granulation tissue): second experiment, day 8, Table XIa. Here is the method:
(§1) This test consists in studying the subacute cellular phase which is developed in the 8 days which follow the implantation of a foreign body, a sponge of non-resorbable plastic, in the dorsal subcutaneous connective tissue in rats.
The granulomas formed are removed 8 days after the implantation; a histological study is carried out after fixing the tissue and staining sections with hematein/ eosin. The observation is more especially concerned with the cell population of the primary phase of the formation of the granulation tissue: the reticulohistocytic cells, lymphocytes and more especially the macrophages.
(§2) The animals used are Wistar rats weighing 120-140 g and of the same origin, maintained under the same conditions of housing throughout the treatment (8 days).
(§3) The compounds of the invention are administered orally, in a gum suspension, in the morning in a fasted state, using an oesophageal tube.
After 8 days of treatment, the rats are sacrificed by decapitation and the granulomas removed and prepared for the purpose of histological examination.
The experiment conditions are as follows:
The animals are distributed in batches of 10;
Each test product is administered at 2 doses, of 50 and 100 mg, respectively, to 2 batches of 10 animals;
Ketoprofen is used by way of reference product at the same 2 doses and under the same conditions; and
A batch of 10 control animals receives no treatment.
(§4) In this experiment, on the one hand a histological study of the granulomas is performed by sampling on day 8 (results recorded in Table XIa), and on the other hand a study of the weight of the granulomas was performed 10 days after the implantation (results recorded in Table XIb).

The test system of data set [2] is rat hind foot carragheenin-induced oedema. Kind of data set: Carragheenin-induced oedema test. Conditions: 3 h, second experiment, Table Xa, read-out: percentage inhibition of the inflammation; for change in vivo at 25 mg/kg: 25 mg/kg oral; for change in vivo at 50 mg/kg: 50 mg/kg oral; for change in vivo at 100 mg/kg: 100 mg/kg oral. The format is in vivo.
Data set [3] relates to biosynthesis of leukotrienes B4 (LTB4), human polymorphonuclear leukocytes. The experiment in a line: Biosynthesis of LTB4, isomers and oxidized metabolites in human polymorphonuclear leukocytes. The format is cell-based. The note with it: Leukocyte, second experiment, read-out: Percentage inhibition of LTB4 formation. The procedure, abridged:
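Human polymorphonuclear leukocytes (5×10^6, used within 6 h of blood draw) preincubated 10 min at 37° C. with test product at 40 μM in DMSO, stimulated with 10 μM ionophore A 23187 in PBS pH 7.4. LTB4, its isomers and oxidized metabolites quantified by HPLC at 269 nm against PGB2 internal standard, as % inhibition or % increase.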

Data set [4] deals with rat hind foot kaolin-induced arthritis. The experiment in a line: Kaolin-induced arthritis test, second experiment, acute phase (volume of the foot at the 8th hour). The note with it: po, 8 h, Table IXa; for change in vivo at 25 mg/kg / change in vivo at 50 mg/kg / change in vivo at 100 mg/kg: 8th hour, read-out: percentage significant decrease in the volume of the treated foot; for ED50: foot volume, read-out: 50% active dose. The data set is classed as in vivo. Here is the method:
(§5) The […] of 0.05 ml of a sterile 10% strength suspension of kaolin into the metatarsal flexor sheath of the hind foot of a rat initially induces an oedematous reaction. An inflammatory arthritis then forms.
The early oedematous reaction appears from the first hour, and reaches its maximum between the fourth hour and the sixth hour. This is the manifestation of interest. The assessment of the volume of the foot enables the action of substances on the oedematous reaction to be studied. The measurements are carried out using a Giono and Chevilard plethysmometer.
(§6) The test products are administered orally (stomach tube) one hour before the injection of the kaolin.
(§7) In a second experiment, a more elaborate study was performed in order to ascertain the effect of the products, on the one hand on the acute phase of the inflammatory reaction (measured by the volume of the foot at the 8th hour), and on the other hand on the chronic phase (activity measured by the weight of the foot at the 12th hour).
As in the previous experiment, ketoprofen was used as the comparative product:
The results are expressed as a percentage significant decrease in the volume of the treated foot compared with the controls.

The test system is the same in data set [5]. Kind of data set: Kaolin-induced arthritis test, second experiment, chronic phase (weight of the foot at the 12th hour). The data set is classed as in vivo. Conditions: po, 12 h, Table IXb; for change in vivo at 25 mg/kg / change in vivo at 50 mg/kg / change in vivo at 100 mg/kg: 12th hour, read-out: percentage significant decrease in the weight of the treated foot; for ED50: foot weight, read-out: 50% active dose. The method, then:
as §5, §6, §7
As in the previous experiment, ketoprofen was used as the comparative product: […]

In data set [6] the test system is pain threshold of brewer's yeast inflamed rat hind foot. Kind of data set: Randall and Sellitto's test (analgesic activity). The format is in vivo. The note with it: second experiment, Table XIIa; for change in vivo at 25 mg/kg: 25 mg/kg oral; for change in vivo at 25 mg/kg / change in vivo at 50 mg/kg / change in vivo at 100 mg/kg: read-out: percentage increase in the mean pain threshold; for change in vivo at 50 mg/kg: 50 mg/kg oral; for change in vivo at 100 mg/kg: 100 mg/kg oral. The essentials:
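Rats had 0.1 ml 20% brewer's yeast suspension injected under the hind-foot plantar aponeurosis; compounds dosed orally by stomach tube 1 h before yeast. Pain threshold was the pressure eliciting foot withdrawal, read at the 4–6 h plateau; result is % increase in mean threshold versus untreated controls, 10 rats per group.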

For data set [7], the system named is foreign-body (sponge) granuloma in rats. Kind of data set: Experimental granuloma induced by foreign body, weight of the granulomas. Conditions: Rattus norvegicus, po, 240 h, 10 days after implantation, Table XIb, read-out: decrease in the weight of the granulomas. The data set is classed as in vivo, Wistar rats. Here is the method:
as §1, §2, §3, §4

The next data set relates to prostacyclin synthetase. The experiment in a line: PGI2 production in human glomeruli (renal preparation model). The format is cell-based. Conditions: arachidonic acid 5 ug/ml. Here is the method:
(§8) Human glomeruli synthesize both thromboxanes, via thromboxane synthetase, and prostaglandins, via prostacyclin synthetase. The experiment consists in stimulating glomerular cells with arachidonic acid (5 ug/ml) and in assaying radioimmunologically the amount of thromboxane B2 (TXB2) and prostacyclin (PGI2) produced in the presence of increasing concentrations of test products (10^-6 M to 5×10^-5 M).
(§9) As for the previous model, the results are expressed as IC50 in comparison with a control suspension.

The test system of another data set is 5-lipoxygenase. The experiment in a line: Production of LTB4 and 5-HETE by human leukocytes incubated with arachidonic acid. The format is cell-based. Conditions: ionophore A 23187 5 μM, arachidonic acid 10 μg/ml. The method, then: Human polymorphonuclear leukocytes suspended with arachidonic acid and stimulated by calcium ionophore produce leukotrienes B4 (LTB4).
The test consists in incubating fresh human leukocytes with arachidonic acid at a dose of 10 μg/ml to which a tracer dose of tritium-labelled arachidonic acid has been added. The leukocytes are stimulated with calcium ionophore A 23187 (Calbiochem, 5 μM) and the amount of 5-hydroxyeicosatetraenoic acid (5-HETE) and LTB4 produced is then assayed by HPLC.
5-HETE is the metabolite produced from arachidonic acid by 5-lipoxygenase, and from which LTB4 is produced by the action of an isomerase.
The results are expressed as an integration of the surface of the peak obtained in HPLC by comparison with that obtained with control leukocytes which have not been incubated with the test products.
The results in brackets are expressed as a percentage inhibition of the production of 5-HETE and LTB4.

The test system of data set [8] is thromboxane synthetase. The experiment in a line: TXB2 production in human platelet suspension (thromboxane synthetase). The format is cell-based. The note with it: human platelets, arachidonic acid 5 μg/ml, 37° C., read-out: IC50, inhibition of the production of TXB2. The method, then:
The platelets are incubated with arachidonic acid (5 μg/ml) in the presence of increasing doses of test products (10^-6l M to 5×10^-5 M). Platelets stimulated by arachidonic acid (AA) manufacture a large amount of thromboxane A2 (TXA2), which can be measured radioimmunologically in the form of a stable metabolite TXB2.
The assay of the amount of TXB2 in the medium is performed after a 1- to 15- minute incubation at 37° C., the measurements being made in comparison with a control suspension which has not been incubated with the test products.
Results: These are expressed as IC50, that is to say as the concentration of the test product which permits 50% inhibition of the production of TXB2.

For data set [9], the system named is thromboxane synthetase. Kind of data set: TXB2 production in human glomeruli (renal preparation model). The note with it: arachidonic acid 5 ug/ml. The data set is classed as cell-based. Here is the method:
as §8, §9

The test system of data set [10] is biosynthesis of leukotrienes C4 (LTC4), human polymorphonuclear leukocytes. Kind of data set: LTC4 production in human polymorphonuclear leukocytes. The data set is classed as cell-based. The note with it: Leukocyte, 0.25 h, ionophore A 23187 5 μM, 15 min, 37° C., read-out: IC50, inhibition of the production of LTC4. Here is the method: Human polymorphonuclear Leukocytes are stimulated by calcium ionophore A 23187 (Calbiochem, 5 μM), in the presence or absence of the test products.
After 15 minutes' incubation at 37° C., assay of the leukotrienes C4 (LTC4) is performed radioimmunologically.
The results are expressed as IC50, the concentration producing 50% inhibition of the production of LTC4, by comparison with a control suspension which has not been incubated in the presence of the test products.

Entries after “also recorded” stand apart in the source; their conditions may differ.

In the case of `O=C(c1ccccc1)c1ccccc1S(=O)(=O)NCCN1CCOCC1` [Compound 1341], the median lethal dose (LD50) – broadly, the dose at which mortality reaches 50% – at 336 h in the data set “Oral LD50 in mice” stood at 250 mg/kg. Moreover, the “histological study of the granuloma” value in data set [1] (both doses (50 and 100 mg/kg) oral, 8 days, Table XI) is on record as “Inflammatory reaction distinctly attenuated”.

With `O=C(O)CCCCCCCCCCNS(=O)(=O)c1ccc(Cl)c(C(=O)c2ccc(Cl)cc2Cl)c1` [Compound 1763], the change in vivo at 25 mg/kg was -30% in [2]; -35 ± 5% in data set [4]; -38 ± 5% in data set [5]; 40% in data set [6]; -15% in [7]. Besides, the change in vivo at 50 mg/kg in data set [2] is -35%; in [4] it was -45 ± 5%; in [5] it was -40 ± 5%; in [6], 42%; in [7] it was -20%. Moreover, the change in vivo at 100 mg/kg in data set [2] is -45%; in data set [4], -50 ± 5%; in [5], -48 ± 5%; in data set [6] it was 45%; in [7] it was -45%. Moreover, in data set [3], the inhibition (commonly the relative decrease from the control value, in per cent) at 40 µM was 100%. Besides, the ED50 in data set [4] and in data set [5] was 100 mg/kg in each case. Besides, the “histological study of the granuloma (inflammatory connective / granulation tissue)” value in [1] is reported as “Peripheral shell of low density”.

Take `O=C(O)CCCCCCCCCCCNS(=O)(=O)c1ccc(Cl)c(C(=O)c2ccc(Cl)cc2Cl)c1` [Compound 1764]: the change in vivo at 25 mg/kg was -45% in data set [2]; -45 ± 5% in data set [4]; -45 ± 5% in data set [5]; 50% in [6]; -45% in data set [7]. Further, the change in vivo at 50 mg/kg was -48% in [2]; -55 ± 5% in data set [4]; -52 ± 5% in data set [5]; 55% in data set [6]; -50% in data set [7]. In addition, the change in vivo at 100 mg/kg in data set [2] is -52%; in data set [4], -60 ± 5%; in [5], -58 ± 5%; in data set [6], 58%; in [7], -55%. Further, the inhibition at 40 µM in data set [3] was 100%. In addition, the ED50 came to 50 mg/kg in data set [4]; 50 mg/kg in data set [5]; 25 mg/kg in data set [6] (po, analgesia, read-out: 50% active dose). The “histological study of the granuloma (inflammatory connective / granulation tissue)” value in data set [1] is recorded as “Peripheral shell of low density; also recorded: lightly inflammatory”.

Consider `O=C(O)CCCCCCCCCCCNS(=O)(=O)c1ccc(Cl)c(C(=O)c2cccs2)c1` [Compound 1813], for which the 50% inhibitory concentration (IC50) (usually the midpoint of a concentration-inhibition curve) with prostacyclin synthetase is over 50000 nM; with thromboxane synthetase [8], 11000 nM; in the data set on thromboxane synthetase [9], 2000 nM; in data set [10], 1000 nM. Besides, the “5-HETE, integration of the surface of the HPLC peak” value in the data set with 5-lipoxygenase is on record as 181.
